One data set concerns HBEC30KT. Kind of data set: Cell viability (ATP, Cell Titer Glo, 4 days), HBEC30KT. The conditions noted are these: Homo sapiens, 12-point dose-response starting at 50 micromolar, 3-fold increments, in duplicate; read-out: toxicity data, HBEC30KT. In kind it is cell-based, human. For orientation: In ATP-based viability assays light output follows the ATP content of the culture.

Data set [1] has as its system HCC4017. Kind of data set: Cell viability dose-response, HCC4017. In kind it is cell-based, human. The conditions noted are these: Homo sapiens, HCC4017, 12-point dose-response starting at 50 micromolar, 3-fold increments, in duplicate; read-out: toxicity data, HCC4017. Summed up: (§1)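 Cells were plated at 15% confluence in RPMI-1640 with 5% FBS and 2 mM L-glutamine, then exposed to compound for 4 days. Viability was read as cellular ATP by CellTiter-Glo luminescence. Values are means of 2 replicates ±SEM, and IC50 comes from the dose-response curve.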

Data set [2] concerns HCC4017. Kind of data set: Metabolism by insensitive cells (HPLC/MS/MS). In kind it is in vitro ADME, human. The method, then:
(§2) FIGS. 9A-9D. Selective toxins selectively cross-link to SCD1 in sensitive cells and are selectively metabolized in sensitive cells. FIG. 9A. 12 NSCLC cell lines were incubated with SW208108 and processed as described in FIG. 7. […] FIG. 9B. […] FIG. 9C. […] Demethylation is the anticipated mode of metabolism. FIG. 9D. A representative benzothiazole is demethylated by sensitive cell lines. […] Values in FIGS. 9C and 9D were obtained by tandem HPLC/MS/MS.
(§3) In this context, 12 different NSCLC cell lines were treated with SW208108, lysed and clicked to a dye as previously described. […] To understand how SW208108 could selectively cross-link to SCD1 within some cell lines that expressed the enzyme but not other cell lines that expressed the same enzyme, we investigated the stability of a representative oxalamide in the presence of a sensitive and insensitive cell line. […] Similarly, a representative benzothiazole was metabolized by H2122 cells through, at least in part, the loss of the O-methyl group (FIG. 9D).

The next data set concerns HCC95. Kind of data set: Cell viability dose-response, HCC95. In kind it is cell-based. The conditions noted are these: Homo sapiens, 12-point dose-response starting at 50 micromolar, 3-fold increments, in duplicate, read-out: toxicity data, HCC95. Summed up:
as §1

The subject of a further data set is H1395. Kind of data set: Cell viability dose-response, H1395. In kind it is cell-based. The settings on record: Homo sapiens, NCI-H1395; 12-point dose-response starting at 50 micromolar, 3-fold increments, in duplicate; read-out: toxicity data, H1395. Summed up: as §1
A further data set has as its system H2122 cells. Kind of data set: Metabolism by sensitive cells (HPLC/MS/MS). The data set is classed as in vitro ADME, human. The method, then: as §2, §3
The test system of the next data set is H2073. Put plainly: Cell viability dose-response, H2073. The data set is classed as cell-based, human. The settings on record: Homo sapiens, NCI-H2073, 12-point dose-response starting at 50 micromolar, 3-fold increments, in duplicate; read-out: toxicity data, H2073. The procedure, abridged: as §1
The next data set relates to HCC366. Kind of data set: Cell viability dose-response, HCC366. The conditions noted are these: Homo sapiens, 12-point dose-response starting at 50 micromolar, 3-fold increments, in duplicate, read-out: toxicity data, HCC366. In kind it is cell-based. Summed up:
as §1

In a further data set the test system is H1993. Put plainly: Cell viability dose-response, H1993. The conditions noted are these: Homo sapiens, NCI-H1993; 12-point dose-response starting at 50 micromolar, 3-fold increments, in duplicate; read-out: toxicity data, H1993. The data set is classed as cell-based. The procedure, abridged: as §1
The subject of the next data set is H2122. Put plainly: Cell viability dose-response, H2122. The settings on record: Homo sapiens. The data set is classed as cell-based, human. Summed up: (§4)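 Viability read as total ATP (Cell Titer Glo) following 4 days' compound exposure, with IC50 derived from dose-response curves. Duplicate 12-point series, top concentration 50 micromolar with 3-fold steps, on cells seeded at 15% confluence in RPMI-1640, 5% FBS, 2 mM L-glutamine.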

A further data set has as its system H2009. Put plainly: Cell viability dose-response, H2009. The conditions noted are these: Homo sapiens, NCI-H2009; 12-point dose-response starting at 50 micromolar, 3-fold increments, in duplicate; read-out: toxicity data, H2009. In kind it is cell-based, human. The procedure, abridged:
as §1

Another data set deals with HCC44. Put plainly: Cell viability dose-response, HCC44. The data set is classed as cell-based, human. The conditions noted are these: Homo sapiens, HCC44, 12-point dose-response starting at 50 micromolar, 3-fold increments, in duplicate; read-out: toxicity data, HCC44. The procedure, abridged: as §1
The subject of another data set is H1155. Kind of data set: Cell viability dose-response, H1155. In kind it is cell-based. The settings on record: Homo sapiens, NCI-H1155; 12-point dose-response starting at 50 micromolar, 3-fold increments, in duplicate; read-out: toxicity data, H1155. The procedure, abridged:
as §1

The next data set relates to H1819. Kind of data set: Cell viability dose-response, H1819. In kind it is cell-based, human. The settings on record: Homo sapiens, NCI-H1819, 12-point dose-response starting at 50 micromolar, 3-fold increments, in duplicate; read-out: toxicity data, H1819. Summed up: as §4
A further data set concerns H460. Kind of data set: Cell viability dose-response, H460. The data set is classed as cell-based. The settings on record: Homo sapiens, NCI-H460; 12-point dose-response starting at 50 micromolar, 3-fold increments, in duplicate; read-out: toxicity data, H460. Summed up: as §1
Data set [3] in a line: ADME for xenograft studies. In kind it is in vivo.
For a further data set, the system named is H2122 xenografts. Kind of data set: In vivo efficacy, H2122 xenografts in NOD/SCID mice. Set-up: species or system mouse. The conditions noted are these: 25 mg/kg IP twice daily. Here is the method:
(§5) FIG. 6C. […] NOD/SCID mice were injected with either H2122 (sensitive) or H1155 (insensitive) cells subcutaneously on day 0. When tumors reached 200 cubic mm, treatment with SW203668 (listed as A2) or vehicle was initiated (as indicated by the arrow) with twice daily doses of 25 mg/kg, IP. Tumor size was measured every 3 days for the duration of the study. Data are plotted as mean±SEM; n=12 for each group.

In another data set the test system is H1155 xenografts. Kind of data set: In vivo efficacy, H1155 xenografts in NOD/SCID mice. Also noted: species or system mouse. The conditions noted are these: 25 mg/kg IP twice daily. Here is the method: as §5

Structures are written as SMILES. pIC50: −log10 of the molar value. Like-named read-outs stand apart in the source and are kept apart here.

Consider two compounds from patent US9789096B2, “Methods and compositions for selective and targeted cancer therapy” (Board of Regents of the University of Texas System, priority 2013, dated 2017).

In the case of `COc1ccc(CCNC(=O)C(=O)Nc2cccc(Cl)c2)cc1` [SW027950], the pIC50 in the data set on HBEC30KT was 4.47; with HCC4017 [1], no more than 4.30; in the data set with HCC95, 6.46; with H1395 it was 4.30; in the data set with H2073, 5.85; with HCC366, 4.30. For the same compound, the pIC50 was 4.30 with H1993; 6.46 with H2122 (NCI-H2122, 12-point dose-response starting at 50 micromolar, 3-fold increments, in duplicate, read-out: toxicity data, H2122); 4.69 in the data set on H2009; 4.47 in the data set on HCC44; 4.30 with H1155; no more than 4.30 in the data set on H1819. The pIC50 in the data set on H460 was 5.41. Further, in the data set on HCC4017 [2], the “stability in the presence of an insensitive cell line” value is recorded as “completely stable”. For the same compound, the “metabolism by sensitive H2122 cells” value with H2122 cells is listed as “metabolized”.

A word on the IC50: it is the point on the concentration scale where inhibition reaches its midpoint. Consider `COc1ccc2nc(NC(=O)c3ccc(C(N)c4ccccc4)cc3)sc2c1` (stereo not shown) [SW203668], for which the “absorption, distribution, metabolism, and excretion (ADME)” value in data set [3] was “appropriate absorption, distribution, metabolism, and excretion”. In addition, the IC50 in the data set with H2122 (NCI-H2122, Tables 3 and 4, read-out: IC50 (uM) vs indicated non-small cell lung cancer cell line H2122) is 0.035 µM. Further, the “tumor growth inhibition in H2122 xenografts” value in the data set with H2122 xenografts is on record as “selective toxicity”. Also, the “tumor growth inhibition in H1155 xenografts” value with H1155 xenografts was “but not H1155 xenografts”.
